Results reported in patent US12617779B2, “Self degradation-type CDK9 inhibitor prodrug and liposome encapsulating same” (Sumitomo Pharma Co., Ltd., priority 2021, dated 2026).
Structures can show the parent of a compound that is named as a salt.

Assay: Evaluation of conversion rate to active form in buffer solution (Experimental Example 1)
Assay type: physicochemical
Conditions: for Production rate of Alvocidib / Residual rate: 37° C., 25 umol/L in buffer solution; for Stability in buffer solution at pH 5: pH 5, 37° C., up to 2 or 3 hours; for Conversion to Alvocidib at pH 7.4: pH 7.4, 37° C., up to 3 hours
Outline: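 25 umol/L cpd, 37° C; 50 mM citrate pH 5.0/5.5, 50 mM phosphate pH 6.0/6.5/7.0/7.4. HPLC at 0–3 h: residual rate and Alvocidib production rate.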

## CCCN(C[C@H]1CCCCN1)C(=O)Oc1cc(O)c2c(=O)cc(-c3ccccc3Cl)oc2c1[C@H]1CCN(C)C[C@H]1O [Example 6, 2-(2-chlorophenyl)-5-hydroxy-8-[(3S,4R)-3-hydroxy-1-methylpiperidin-4-yl]-4-oxo-4H-1-benzopyran-7-yl {[(2R)-piperidin-2-yl]methyl}propylcarbamate]
pH5.0, 0 hr
  Production rate of Alvocidib: 0.5%
  Residual rate: 99.3%
  Stability in buffer solution at pH 5: stable
  Conversion to Alvocidib at pH 7.4: rapidly converted to Alvocidib
pH5.0, 0.5 hr
  Production rate of Alvocidib: 0.9%
  Residual rate: 99.1%
pH5.0, 1 hr
  Production rate of Alvocidib: 1.3%
  Residual rate: 98.7%
pH5.0, 2 hr
  Production rate of Alvocidib: 2.0%
  Residual rate: 97.8%
pH5.0, 3 hr
  Production rate of Alvocidib: 2.6%
  Residual rate: 96.8%
pH5.5, 0 hr
  Production rate of Alvocidib: 0.5%
  Residual rate: 99.5%
pH5.5, 0.5 hr
  Production rate of Alvocidib: 1.6%
  Residual rate: 98.1%
pH5.5, 1 hr
  Production rate of Alvocidib: 2.5%
  Residual rate: 97.0%
pH5.5, 2 hr
  Production rate of Alvocidib: 4.3%
  Residual rate: 94.2%
pH5.5, 3 hr
  Production rate of Alvocidib: 6.2%
  Residual rate: 91.9%
pH6.0, 0 hr
  Production rate of Alvocidib: 0.6%
  Residual rate: 99.4%
pH6.0, 0.5 hr
  Production rate of Alvocidib: 4.0%
  Residual rate: 94.8%
pH6.0, 1 hr
  Production rate of Alvocidib: 7.1%
  Residual rate: 90.7%
pH6.0, 2 hr
  Production rate of Alvocidib: 13.2%
  Residual rate: 82.5%
pH6.0, 3 hr
  Production rate of Alvocidib: 18.6%
  Residual rate: 75.2%
pH6.5, 0 hr
  Production rate of Alvocidib: 0.6%
  Residual rate: 99.4%
pH6.5, 0.5 hr
  Production rate of Alvocidib: 10.1%
  Residual rate: 86.6%
pH6.5, 1 hr
  Production rate of Alvocidib: 18.6%
  Residual rate: 75.3%
pH6.5, 2 hr
  Production rate of Alvocidib: 31.9%
  Residual rate: 56.9%
pH6.5, 3 hr
  Production rate of Alvocidib: 42.8%
  Residual rate: 42.3%
pH7.0, 0 hr
  Production rate of Alvocidib: 0.7%
  Residual rate: 99.3%
pH7.0, 0.5 hr
  Production rate of Alvocidib: 27.0%
  Residual rate: 63.7%
pH7.0, 1 hr
  Production rate of Alvocidib: 44.4%
  Residual rate: 40.4%
pH7.0, 2 hr
  Production rate of Alvocidib: 62.8%
  Residual rate: 16.1%
pH7.0, 3 hr
  Production rate of Alvocidib: 69.8%
  Residual rate: 6.8%
pH7.4, 0 hr
  Production rate of Alvocidib: 0.9%
  Residual rate: 99.1%
pH7.4, 0.5 hr
  Production rate of Alvocidib: 47.8%
  Residual rate: 36.3%
pH7.4, 1 hr
  Production rate of Alvocidib: 65.7%
  Residual rate: 12.7%
pH7.4, 2 hr
  Production rate of Alvocidib: 73.6%
  Residual rate: 2.7%
pH7.4, 3 hr
  Production rate of Alvocidib: 75.3%
  Residual rate: 0.7%

## CCN(CC1CCCCN1)C(=O)Oc1cc(O)c2c(=O)cc(-c3ccccc3Cl)oc2c1[C@H]1CCN(C)C[C@H]1O (stereo partly drawn) [Example 7, 2-(2-chlorophenyl)-5-hydroxy-8-[(3S,4R)-3-hydroxy-1-methylpiperidin-4-yl]-4-oxo-4H-1-benzopyran-7-yl ethyl[(piperidin-2-yl)methyl]carbamate dihydrochloride]
pH5.0, 0 hr
  Production rate of Alvocidib: 0.0%
  Residual rate: 100.0%
  Stability in buffer solution at pH 5: stable
  Conversion to Alvocidib at pH 7.4: rapidly converted to Alvocidib
pH5.0, 0.5 hr
  Production rate of Alvocidib: 0.0%
  Residual rate: 100.0%
pH5.0, 1 hr
  Production rate of Alvocidib: 0.0%
  Residual rate: 100.0%
pH5.0, 2 hr
  Production rate of Alvocidib: 1.5%
  Residual rate: 98.5%
pH5.0, 3 hr
  Production rate of Alvocidib: 2.3%
  Residual rate: 97.7%
pH5.5, 0 hr
  Production rate of Alvocidib: 0.0%
  Residual rate: 100.0%
pH5.5, 0.5 hr
  Production rate of Alvocidib: 1.2%
  Residual rate: 98.8%
pH5.5, 1 hr
  Production rate of Alvocidib: 2.0%
  Residual rate: 98.0%
pH5.5, 2 hr
  Production rate of Alvocidib: 3.8%
  Residual rate: 96.2%
pH5.5, 3 hr
  Production rate of Alvocidib: 5.1%
  Residual rate: 94.9%
pH6.0, 0 hr
  Production rate of Alvocidib: 1.1%
  Residual rate: 98.9%
pH6.0, 0.5 hr
  Production rate of Alvocidib: 4.0%
  Residual rate: 96.0%
pH6.0, 1 hr
  Production rate of Alvocidib: 5.4%
  Residual rate: 94.6%
pH6.0, 2 hr
  Production rate of Alvocidib: 12.5%
  Residual rate: 87.5%
pH6.0, 3 hr
  Production rate of Alvocidib: 16.6%
  Residual rate: 83.4%
pH6.5, 0 hr
  Production rate of Alvocidib: 3.3%
  Residual rate: 96.7%
pH6.5, 0.5 hr
  Production rate of Alvocidib: 12.4%
  Residual rate: 87.6%
pH6.5, 1 hr
  Production rate of Alvocidib: 16.0%
  Residual rate: 84.0%
pH6.5, 2 hr
  Production rate of Alvocidib: 26.8%
  Residual rate: 73.2%
pH6.5, 3 hr
  Production rate of Alvocidib: 35.2%
  Residual rate: 64.8%
pH7.0, 0 hr
  Production rate of Alvocidib: 10.9%
  Residual rate: 89.1%
pH7.0, 0.5 hr
  Production rate of Alvocidib: 27.3%
  Residual rate: 72.7%
pH7.0, 1 hr
  Production rate of Alvocidib: 38.0%
  Residual rate: 62.0%
pH7.0, 2 hr
  Production rate of Alvocidib: 52.9%
  Residual rate: 47.1%
pH7.0, 3 hr
  Production rate of Alvocidib: 70.5%
  Residual rate: 29.5%
pH7.4, 0 hr
  Production rate of Alvocidib: 19.0%
  Residual rate: 81.0%
pH7.4, 0.5 hr
  Production rate of Alvocidib: 50.2%
  Residual rate: 49.8%
pH7.4, 1 hr
  Production rate of Alvocidib: 60.8%
  Residual rate: 39.2%
pH7.4, 2 hr
  Production rate of Alvocidib: 69.0%
  Residual rate: 31.0%
pH7.4, 3 hr
  Production rate of Alvocidib: 81.0%
  Residual rate: 19.0%
